In one assay the test system is RAW264.7 cells. Kind of assay: IL-17A uptake mechanism: endocytic pathway inhibitors, 4 °C, NaN3. It is filed as cell-based. Conditions: RAW264.7, 0.5 μg/ml IL-17A + 50 μM mixed fi-SRAL and fi-17Abp, 6 h; NaN3 100 mM, CPZ 3 μg/ml, Me-β-CD 0.5 mM, EIPA 20 μM. The procedure:
To evaluate the uptake mechanism of IL-17A, RAW264.7 cells were pretreated with various inhibitors for 30 min at 37 °C: chlorpromazine (clathrin-mediated endocytosis inhibitor, 3 μg/ml), Me-β-cyclodextrin (0.5 mM, lipid rafting pathway inhibitors), EIPA (20 μM, pinocytosis inhibitor). In addition, the cells were cultured at 4 °C or treated with NaN3 (100 mM) to assess the effect of energy on IL-17A uptake. After that, the cells were cultured with fresh medium containing inhibitors at the same concentrations, 50 μM 17Abp and SRAL mixture, and 0.5 μg/ml IL-17A for 6 h. The uptake of the IL-17A by cells was analyzed through flow cytometry according to the procedure mentioned above.
Supplementary Fig. 5 Uptake of IL-17A by macrophages is an energy-dependent process involving several endocytosis pathways. a) Uptake of IL-17A in RAW264.7 cells incubated at 4 °C or pretreated with 100 mM NaN3 for 0.5 h followed by the addition of 0.5 μg/ml IL-17A and 50 μM mixed fi-SRAL and fi-17Abp peptides for 6 h. b) Uptake of IL-17A in RAW264.7 cells incubated with 0.5 mM Me-β-CD (lipid rafting pathway inhibitor), 20 μM EIPA (pinocytosis inhibitor) or 3 μg/ml CPZ (clathrin-endocytosis inhibitor) for 0.5 h followed by the addition of 0.5 μg/ml IL-17A and 50 μM mixed fi-SRAL and fi-17Abp peptides for 6 h. MFI was determined by flow cytometry and the relative MFI was normalized to the control group. Data are presented as the mean ± SD, and error bars represent the standard deviation of biological replicates (n = 3). P values were determined by one-way ANOVA with Tukey’s multiple comparisons test. […]

In assay [1] the test system is IMQ-induced psoriasis-like mouse model. Put plainly: IMQ-induced psoriasis mouse model: acanthosis (H&E of back skin). The class given is in vivo. Conditions: day 7, H&E of back skin, IMQ psoriasis BALB/c mice, i.p. 7 days: fm-17Abp 15, fm-SRAL 22, 17A-Lytaca 15+22, control-Lytaca 12+22 mg/kg/day, MTX 1 mg/kg/twice day. The procedure: 8 to10-week-old female BALB/c mice were purchased from Peking University Health Science Center Department of Laboratory Animal Science. They were randomly divided into seven groups. Vehicle group (PBS administration) was treated with 62.5 mg/day of Vaseline cream while the other six groups were treated with 62.5 mg/day of 5% IMQ cream (Sichuan Med-shine Pharmaceuticals) on the shaved back skin (2 cm × 3 cm) of mice (days 1–7).
The psoriasis area and severity index (PASI) consists of measurements of skin erythema, scale, and thickness. They were scored independently on a scale of 0–4: 0, none; 1, slight; 2, moderate; 3, marked; 4, very marked. The cumulative PASI score was obtained by adding the 3 index scores (scores of 0–12). The thickness of the mouse skin was measured using a micrometer, and the average value was measured three times a day. For histopathology analysis, tissues from the euthanized animals were fixed in formalin and embedded in paraffin. Sections (5 μm thickness) were stained with H&E.

The target of another assay is T1, IL-17A (Mus musculus, UniProt Q62386).
T1 sequence (Q62386 26-158): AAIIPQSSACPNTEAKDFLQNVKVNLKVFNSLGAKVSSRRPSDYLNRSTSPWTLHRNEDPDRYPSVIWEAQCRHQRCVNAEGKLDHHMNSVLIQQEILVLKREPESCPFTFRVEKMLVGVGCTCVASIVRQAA
Kind of assay: IL-17A protein level in skin lesion (ELISA). Conditions: i.p. 7 days: fm-17Abp 15, fm-SRAL 22, 17A-Lytaca 15+22, control-Lytaca 12+22 mg/kg/day, MTX 1 mg/kg/twice day. The class given is in vivo. On the procedure:
Plasma cytokine concentrations of IL-17A, IL-6, IL-22, and CCL-20 were determined by a commercial ELISA kit (Dogesce). For skin IL-17A detection, the back skin of mice was isolated and triturated with a grinder (Tiss-24, Jing Xin). Cell debris was precipitated via centrifugation (1000×g, 4 °C, 15 min), and IL-17A was measured in the supernatant using the IL-17A ELISA kit (Dogesce) and normalized to the total protein concentration, which was determined via BCA assay.
In general terms: In an ELISA, binding on a coated surface is turned into a signal by an enzyme label.

Another assay concerns the target T2, PD-L1 (Mus musculus, UniProt Q9EP73).
T2 construct: endogenous in cells; host or cells: RAW264.7 (WT and SR-A-KO)
Kind of assay: Western blot of PD-L1 in RAW264.7 cells. It is filed as cell-based. Conditions: Suppl Fig.18c, 50 μM, PBS = 100. On the procedure: Proteins were extracted using RIPA buffer (Beyotime) supplemented with protease inhibitors (Beyotime) and quantified using the BCA assay (Solarbio). SDS–PAGE was performed to separate proteins, which were then transferred to PVDF membranes (EMD Millipore). Next, the membranes were blocked in 5% fat-free milk for 2 h and incubated with primary antibodies at 4 °C overnight. including Rabbit anti-GAPDH antibody (1:5000, ab181602, Abcam), Mouse anti-GAPDH antibody (1:5000, 60004-1-Ig, Proteintech), Rabbit anti-CD2O4 antibody (1:1000, ab151707, Abcam), Mouse anti-PD-L1antibody (1:1000, 66248-1-Ig, Proteintech), Mouse anti-His-Tag antibody (1:2000, CW0286, CoWin Biosciences), Phospho-p44/42 MAPK (Erk1/2) (Thr202/Tyr204) (D13.14.4E) XP® Rabbit mAb, (1:1000, 4370T, Cell Signaling Technology), p44/42 MAPK (Erk1/2) (137F5) Rabbit mAb (1:1000 4695T, Cell Signaling Technology). After washing the membranes three times, secondary antibodies including HRP-conjugated Affinipure Goat Anti-Mouse IgG(H + L) (1:5000, SA00001-1, Proteintech), HRP-conjugated Affinipure Goat Anti-Rabbit IgG(H + L) (1:5000, SA00001-2, Proteintech) labeled with horseradish peroxidase (Proteintech) were applied at room temperature for 2 h and the immunoreactivity was visualized by supper ECL western blotting substrate (Coolaber). The densitometric analysis was performed by ImageJ software (NIH).

The next assay addresses T3, SR-A (Mus musculus, UniProt P30204).
T3 construct: endogenous in cells; host or cells: RAW264.7
T3 sequence (P30204 1-458): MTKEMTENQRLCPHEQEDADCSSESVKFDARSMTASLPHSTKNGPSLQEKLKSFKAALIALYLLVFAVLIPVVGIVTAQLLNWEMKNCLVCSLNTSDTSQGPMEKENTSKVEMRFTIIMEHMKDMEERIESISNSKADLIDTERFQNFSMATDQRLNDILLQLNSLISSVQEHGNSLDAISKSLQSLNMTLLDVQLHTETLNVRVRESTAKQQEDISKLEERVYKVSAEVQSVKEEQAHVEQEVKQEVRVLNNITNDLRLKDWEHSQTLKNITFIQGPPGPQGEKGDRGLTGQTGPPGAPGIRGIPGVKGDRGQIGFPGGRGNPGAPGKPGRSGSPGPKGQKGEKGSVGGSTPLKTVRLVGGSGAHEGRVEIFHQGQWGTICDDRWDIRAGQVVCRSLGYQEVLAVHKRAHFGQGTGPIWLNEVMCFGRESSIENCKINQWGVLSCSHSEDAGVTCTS
Kind of assay: SR-A inhibition assay with poly I / poly C (IL-17A uptake). It is filed as cell-based. The following applies: RAW264.7, with exogenous IL-17A and the peptide mixture. On the procedure: To verify the involvement of SR-A in the IL-17A endocytosis, RAW264.7 cells were treated with the SR-A inhibitor Poly I or the control Poly C at the indicated concentration together with the 50 μM 17Abp and SRAL mixture and 0.5 μg/ml IL-17A for 6 h. Then, flow cytometry analysis was used to measure the intracellular IL-17A level according to the procedure mentioned above.

Non-standard residues stand in square brackets, D forms with d. Residues, ends and D or L forms follow the SMILES beside them. *: point of attachment. Acetyl(2-naphthyl) = O=C(Cc1ccc2ccccc2c1)*; Ahx = NCCCCCC(=O)O

T2 sequence (Q9EP73 19-290): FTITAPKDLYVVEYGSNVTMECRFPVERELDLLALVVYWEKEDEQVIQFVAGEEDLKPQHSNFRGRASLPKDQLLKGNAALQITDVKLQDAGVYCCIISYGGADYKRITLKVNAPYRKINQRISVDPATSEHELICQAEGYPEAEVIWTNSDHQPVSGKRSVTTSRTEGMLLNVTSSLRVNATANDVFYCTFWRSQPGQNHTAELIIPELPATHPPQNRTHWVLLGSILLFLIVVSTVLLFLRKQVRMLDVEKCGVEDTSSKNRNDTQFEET

Consider `CN(C)CCCN1c2ccccc2Sc2ccc(Cl)cc21` [CPZ, chlorpromazine], for which the “Effect of endocytosis/energy inhibitor on IL-17A uptake (in words)” value (shortened to “Effect of endocytosis/energy inhibitor”) in the assay on RAW264.7 cells was “significant decreases in cellular fluorescence”.
Same read-out and setting: the entry for `CCN(c1nc(N)c(C(=O)N=C(N)N)nc1Cl)C(C)C` [EIPA, 5-(N-ethyl-N-isopropyl)-amiloride] is “decreased IL-17A uptake”.
As for `CN(Cc1cnc2nc(N)nc(N)c2n1)c1ccc(C(=O)N[C@@H](CCC(=O)O)C(=O)O)cc1` [MTX, methotrexate], the Acanthosis in assay [1] (animal 1 of n = 5) was found to be 66.3 μm; in assay [1] (animal 2 of n = 5), 89.8 μm; in assay [1] (animal 3 of n = 5) it was 73.7 μm; in assay [1] (animal 4 of n = 5) it was 59.4 μm; in assay [1] (animal 5 of n = 5), 85.7 μm. Further, the “Skin IL-17A” value on IL-17A (day 7, animal 1 of n = 5, IMQ psoriasis BALB/c mice) is listed as 60.0538 pg/mg protein; on IL-17A (day 7, animal 2 of n = 5, IMQ psoriasis BALB/c mice), 102.2787 pg/mg protein; on IL-17A (day 7, animal 3 of n = 5, IMQ psoriasis BALB/c mice), 103.0959 pg/mg protein; at IL-17A (day 7, animal 4 of n = 5, IMQ psoriasis BALB/c mice) it was 57.7792 pg/mg protein; on IL-17A (day 7, animal 5 of n = 5, IMQ psoriasis BALB/c mice), 78.3380 pg/mg protein.
On to `[N-]=[N+]=[N-].[Na+]` [NaN3], for which the “Effect of endocytosis/energy inhibitor” value in the assay on RAW264.7 cells is “significantly reduced intracellular fluorescence signals of IL-17A”.
Turning to `C[C@H](NC(=O)[C@H](CCC(=O)O)NC(=O)[C@H](C)NC(=O)[C@H](CCC(=O)O)NC(=O)[C@H](C)NC(=O)[C@H](CCC(=O)O)NC(=O)[C@H](C)NC(=O)[C@H](CCC(=O)O)NC(=O)[C@H](C)NC(=O)[C@H](CCC(=O)O)NC(=O)[C@H](C)NC(=O)[C@H](CCC(=O)O)NC(=O)[C@H](C)NC(=O)[C@H](CCC(=O)O)NC(=O)[C@H](C)NC(=O)[C@H](CCC(=O)O)NC(=O)[C@H](C)NC(=O)[C@H](CCC(=O)O)NC(=O)[C@H](C)NC(=O)[C@H](CCC(=O)O)NC(=O)[C@H](C)NC(=O)[C@H](CCC(=O)O)NC(=O)[C@H](C)NC(=O)[C@H](CCC(=O)O)NC(=O)[C@H](C)NC(=O)[C@H](CCC(=O)O)NC(=O)[C@H](C)NC(=O)[C@H](CCC(=O)O)NC(=O)[C@H](C)NC(=O)[C@H](CCC(=O)O)NC(=O)CCCCCNC(=O)[C@H](Cc1ccccc1)NC(=O)[C@H](Cc1ccccc1)NC(=O)Cc1ccc2ccccc2c1)C(N)=O` [nf-SRAL] ({Acetyl(2-naphthyl)}-FF[Ahx]EAEAEAEAEAEAEAEAEAEAEAEAEAEAEA-NH2), the results for the “Relative intensity of PD-L1” value on PD-L1 (replicate 1), on PD-L1 (replicate 2) and at PD-L1 (replicate 3) were 96, 106 and 102, respectively.
For the compound methyl-β-cyclodextrin [Me-β-CD], the “Effect of endocytosis/energy inhibitor” value in the assay on RAW264.7 cells is recorded as “significant decreases in cellular fluorescence”.
Regarding polycytidylic acid [Poly C], the “Effect on IL-17A uptake efficiency (in words)” value at SR-A was “no discernible impact”.
On the same count and under the same terms, to polyinosinic acid [Poly I] belongs “concentration-dependent inhibition”.

For the origin of these results see publication PMC10891067, “A co-assembly platform engaging macrophage scavenger receptor A for lysosome-targeting protein degradation” (Nature Communications, 2024).
